Results: US20250114486A1, “MARKED FATTY ACID DERIVATIVE, PRECURSOR COMPOUND THEREOF, AND USE THEREOF IN CONTRAST AGENT” (BEIJING NORMAL UNIVERSITY, priority 2022, published 2025)

Assay: In vivo biodistribution in female Kunming mice
Details: for Biodistribution: Large Intestine / Biodistribution: Small Intestine / Biodistribution: Stomach: unit % ID; for absolute myocardial uptake (assessment): after tail vein injection
Description: Female Kunming mice (20-22 g, n=3) were fasted for 12 h before the experiment, and the purified radioactive ^99mTc complex 130 was dissolved in a normal saline (containing 10% ethanol) solution (about 100 μCi/mL). Female Kunming mice were injected with 100 μL of the above solution through the tail vein, and the mice were killed by cervical dislocation at 5, 15, 30, 60, and 120 min post-injection, respectively. Blood, brain, heart, liver, spleen, lung, kidney, muscle, bone, large intestine, small intestine, stomach and tail were collected, weighed and counted, and the count distribution of each tissue and organ was calculated (unit: % ID/g, the unit of large intestine, small intestine and stomach was % ID), and the data were the mean±standard deviation of three mice in each time phase. At the same time, 100 μL of the above solution was diluted to 10 mL, which was used as the % ID without deducting the tail count.
The corresponding radioactive ^99mTc complex 158 as the typical compounds of the general formula V in this application was selected to conduct an in vivo biodistribution study in female Kunming mice. The specific experimental method was shown in the experimental method of “In vivo biodistribution study of radioactive ^99mTc complex 130 in female Kunming mice” in Example 7 above.

COC(C)(C)C[N+]#[C][99Tc-5]([C]#[N+]CC(C)(C)OC)([C]#[N+]CC(C)(C)OC)([C]#[N+]CC(C)(C)OC)([C]#[N+]CC(C)(C)OC)[C]#[N+]CC(C)(C)OCCCS(=O)(=O)CCCCCSCCCCC(=O)O [^99mTc complex 130]
Biodistribution: Blood (5 min post-injection): 0.54 ± 0.07 ID %/g | Biodistribution: Bone (5 min post-injection): 0.54 ± 0.10 ID %/g | Biodistribution: Brain (5 min post-injection): 0.04 ± 0.00 ID %/g | Biodistribution: Heart (5 min post-injection): 2.14 ± 0.25 ID %/g | Biodistribution: Kidney (5 min post-injection): 9.64 ± 0.08 ID %/g | Biodistribution: Liver (5 min post-injection): 53.13 ± 4.86 ID %/g | Biodistribution: Lungs (5 min post-injection): 0.84 ± 0.09 ID %/g | Biodistribution: Muscle (5 min post-injection): 0.75 ± 0.06 ID %/g | Biodistribution: Spleen (5 min post-injection): 0.67 ± 0.04 ID %/g | Heart-to-Blood ratio (5 min post-injection): 3.96 | Heart-to-Liver ratio (5 min post-injection): 0.04 | Heart-to-Lungs ratio (5 min post-injection): 2.55 | Heart-to-Muscle ratio (5 min post-injection): 2.85 | Biodistribution: Large Intestine (5 min post-injection): 0.53 ± 0.10 % ID | Biodistribution: Small Intestine (5 min post-injection): 4.32 ± 0.25 % ID | Biodistribution: Stomach (5 min post-injection): 0.17 ± 0.02 % ID | Biodistribution: Blood (15 min post-injection): 0.24 ± 0.01 ID %/g | Biodistribution: Bone (15 min post-injection): 0.76 ± 0.13 ID %/g | Biodistribution: Brain (15 min post-injection): 0.03 ± 0.01 ID %/g | Biodistribution: Heart (15 min post-injection): 1.92 ± 0.18 ID %/g | Biodistribution: Kidney (15 min post-injection): 7.89 ± 0.19 ID %/g | Biodistribution: Liver (15 min post-injection): 42.04 ± 2.91 ID %/g | Biodistribution: Lungs (15 min post-injection): 0.76 ± 0.03 ID %/g | Biodistribution: Muscle (15 min post-injection): 0.67 ± 0.07 ID %/g | Biodistribution: Spleen (15 min post-injection): 0.50 ± 0.03 ID %/g | Heart-to-Blood ratio (15 min post-injection): 8.00 | Heart-to-Liver ratio (15 min post-injection): 0.05 | Heart-to-Lungs ratio (15 min post-injection): 2.53 | Heart-to-Muscle ratio (15 min post-injection): 2.87 | Biodistribution: Large Intestine (15 min post-injection): 0.82 ± 0.34 % ID | Biodistribution: Small Intestine (15 min post-injection): 20.74 ± 0.83 % ID | Biodistribution: Stomach (15 min post-injection): 0.26 ± 0.01 % ID | Biodistribution: Blood (30 min post-injection): 0.12 ± 0.04 ID %/g | Biodistribution: Bone (30 min post-injection): 0.33 ± 0.12 ID %/g | Biodistribution: Brain (30 min post-injection): 0.02 ± 0.01 ID %/g | Biodistribution: Heart (30 min post-injection): 1.54 ± 0.38 ID %/g | Biodistribution: Kidney (30 min post-injection): 2.51 ± 0.58 ID %/g | Biodistribution: Liver (30 min post-injection): 18.08 ± 0.30 ID %/g | Biodistribution: Lungs (30 min post-injection): 0.28 ± 0.05 ID %/g | Biodistribution: Muscle (30 min post-injection): 0.59 ± 0.16 ID %/g | Biodistribution: Spleen (30 min post-injection): 0.31 ± 0.05 ID %/g | Heart-to-Blood ratio (30 min post-injection): 12.83 | Heart-to-Liver ratio (30 min post-injection): 0.09 | Heart-to-Lungs ratio (30 min post-injection): 5.50 | Heart-to-Muscle ratio (30 min post-injection): 2.61 | Biodistribution: Large Intestine (30 min post-injection): 1.56 ± 0.16 % ID | Biodistribution: Small Intestine (30 min post-injection): 29.63 ± 3.26 % ID | Biodistribution: Stomach (30 min post-injection): 0.12 ± 0.04 % ID | Biodistribution: Blood (60 min post-injection): 0.08 ± 0.01 ID %/g | Biodistribution: Bone (60 min post-injection): 0.15 ± 0.03 ID %/g | Biodistribution: Brain (60 min post-injection): 0.02 ± 0.00 ID %/g | Biodistribution: Heart (60 min post-injection): 1.37 ± 0.26 ID %/g | Biodistribution: Kidney (60 min post-injection): 1.20 ± 0.10 ID %/g | Biodistribution: Liver (60 min post-injection): 15.12 ± 1.7 ID %/g | Biodistribution: Lungs (60 min post-injection): 0.19 ± 0.01 ID %/g | Biodistribution: Muscle (60 min post-injection): 0.43 ± 0.09 ID %/g | Biodistribution: Spleen (60 min post-injection): 0.14 ± 0.03 ID %/g | Heart-to-Blood ratio (60 min post-injection): 17.13 | Heart-to-Liver ratio (60 min post-injection): 0.09 | Heart-to-Lungs ratio (60 min post-injection): 7.21 | Heart-to-Muscle ratio (60 min post-injection): 3.19 | Biodistribution: Large Intestine (60 min post-injection): 16.13 ± 5.3 % ID | Biodistribution: Small Intestine (60 min post-injection): 26.18 ± 3.9 % ID | Biodistribution: Stomach (60 min post-injection): 0.29 ± 0.05 % ID | Biodistribution: Blood (120 min post-injection): 0.04 ± 0.01 ID %/g | Biodistribution: Bone (120 min post-injection): 0.09 ± 0.01 ID %/g | Biodistribution: Brain (120 min post-injection): 0.02 ± 0.01 ID %/g | Biodistribution: Heart (120 min post-injection): 1.27 ± 0.03 ID %/g | Biodistribution: Kidney (120 min post-injection): 0.30 ± 0.04 ID %/g | Biodistribution: Liver (120 min post-injection): 3.74 ± 0.98 ID %/g | Biodistribution: Lungs (120 min post-injection): 0.19 ± 0.05 ID %/g | Biodistribution: Muscle (120 min post-injection): 0.38 ± 0.10 ID %/g | Biodistribution: Spleen (120 min post-injection): 0.13 ± 0.02 ID %/g | Heart-to-Blood ratio (120 min post-injection): 31.75 | Heart-to-Liver ratio (120 min post-injection): 0.34 | Heart-to-Lungs ratio (120 min post-injection): 6.68 | Heart-to-Muscle ratio (120 min post-injection): 3.34 | Biodistribution: Large Intestine (120 min post-injection): 34.11 ± 4.52 % ID | Biodistribution: Small Intestine (120 min post-injection): 7.50 ± 2.45 % ID | Biodistribution: Stomach (120 min post-injection): 0.17 ± 0.12 % ID | absolute myocardial uptake (assessment): relatively low

COC(C)(C)C[N+]#[C][99Tc-5]([C]#[N+]CC(C)(C)OC)([C]#[N+]CC(C)(C)OC)([C]#[N+]CC(C)(C)OC)([C]#[N+]CC(C)(C)OC)[C]#[N+]CC(C)(C)OCCCS(=O)(=O)CCCCCS(=O)(=O)CCCSCCCCC(=O)O [^99mTc complex 158]
heart-to-blood ratios (assessment): moderate level | heart-to-lungs ratios (assessment): moderate level | myocardial clearance: fast | Biodistribution: Blood (5 min post-injection): 13.21 ± 2.84 ID %/g | Biodistribution: Bone (5 min post-injection): 2.31 ± 0.36 ID %/g | Biodistribution: Brain (5 min post-injection): 0.39 ± 0.14 ID %/g | Biodistribution: Heart (5 min post-injection): 4.19 ± 0.10 ID %/g | Biodistribution: Kidney (5 min post-injection): 7.80 ± 1.46 ID %/g | Biodistribution: Liver (5 min post-injection): 37.80 ± 6.80 ID %/g | Biodistribution: Lungs (5 min post-injection): 5.91 ± 0.89 ID %/g | Biodistribution: Muscle (5 min post-injection): 1.82 ± 0.16 ID %/g | Biodistribution: Spleen (5 min post-injection): 1.55 ± 0.01 ID %/g | Heart-to-Blood ratio (5 min post-injection): 0.32 | Heart-to-Liver ratio (5 min post-injection): 0.11 | Heart-to-Lungs ratio (5 min post-injection): 0.71 | Biodistribution: Large Intestine (5 min post-injection): 1.04 ± 0.37 % ID | Biodistribution: Small Intestine (5 min post-injection): 5.39 ± 0.84 % ID | Biodistribution: Stomach (5 min post-injection): 0.54 ± 0.19 % ID | Biodistribution: Blood (15 min post-injection): 5.47 ± 0.09 ID %/g | Biodistribution: Bone (15 min post-injection): 1.04 ± 0.38 ID %/g | Biodistribution: Brain (15 min post-injection): 0.14 ± 0.05 ID %/g | Biodistribution: Heart (15 min post-injection): 1.63 ± 0.02 ID %/g | Biodistribution: Kidney (15 min post-injection): 4.59 ± 0.68 ID %/g | Biodistribution: Liver (15 min post-injection): 33.35 ± 0.37 ID %/g | Biodistribution: Lungs (15 min post-injection): 2.69 ± 0.70 ID %/g | Biodistribution: Muscle (15 min post-injection): 1.10 ± 0.22 ID %/g | Biodistribution: Spleen (15 min post-injection): 0.86 ± 0.28 ID %/g | Heart-to-Blood ratio (15 min post-injection): 0.30 | Heart-to-Liver ratio (15 min post-injection): 0.05 | Heart-to-Lungs ratio (15 min post-injection): 0.61 | Biodistribution: Large Intestine (15 min post-injection): 0.67 ± 0.15 % ID | Biodistribution: Small Intestine (15 min post-injection): 16.67 ± 2.60 % ID | Biodistribution: Stomach (15 min post-injection): 0.46 ± 0.13 % ID | Biodistribution: Blood (30 min post-injection): 1.20 ± 0.1 ID %/g | Biodistribution: Bone (30 min post-injection): 0.37 ± 0.1 ID %/g | Biodistribution: Brain (30 min post-injection): 0.1 ± 0.04 ID %/g | Biodistribution: Heart (30 min post-injection): 0.91 ± 0.11 ID %/g | Biodistribution: Kidney (30 min post-injection): 2.22 ± 0.2 ID %/g | Biodistribution: Liver (30 min post-injection): 22.5 ± 3.2 ID %/g | Biodistribution: Lungs (30 min post-injection): 0.9 ± 0.04 ID %/g | Biodistribution: Muscle (30 min post-injection): 0.46 ± 0.1 ID %/g | Biodistribution: Spleen (30 min post-injection): 0.55 ± 0.1 ID %/g | Heart-to-Blood ratio (30 min post-injection): 0.76 | Heart-to-Liver ratio (30 min post-injection): 0.04 | Heart-to-Lungs ratio (30 min post-injection): 1.00 | Biodistribution: Large Intestine (30 min post-injection): 1.25 ± 0.1 % ID | Biodistribution: Small Intestine (30 min post-injection): 20.9 ± 4.6 % ID | Biodistribution: Stomach (30 min post-injection): 0.25 ± 0.1 % ID | Biodistribution: Blood (60 min post-injection): 0.42 ± 0.03 ID %/g | Biodistribution: Bone (60 min post-injection): 0.24 ± 0.04 ID %/g | Biodistribution: Brain (60 min post-injection): 0.06 ± 0.01 ID %/g | Biodistribution: Heart (60 min post-injection): 0.67 ± 0.09 ID %/g | Biodistribution: Kidney (60 min post-injection): 1.20 ± 0.10 ID %/g | Biodistribution: Liver (60 min post-injection): 22.8 ± 1.20 ID %/g | Biodistribution: Lungs (60 min post-injection): 0.50 ± 0.02 ID %/g | Biodistribution: Muscle (60 min post-injection): 0.31 ± 0.06 ID %/g | Biodistribution: Spleen (60 min post-injection): 0.24 ± 0.06 ID %/g | Heart-to-Blood ratio (60 min post-injection): 1.60 | Heart-to-Liver ratio (60 min post-injection): 0.03 | Heart-to-Lungs ratio (60 min post-injection): 1.34 | Biodistribution: Large Intestine (60 min post-injection): 1.31 ± 0.27 % ID | Biodistribution: Small Intestine (60 min post-injection): 34.24 ± 3.12 % ID | Biodistribution: Stomach (60 min post-injection): 0.38 ± 0.05 % ID | Biodistribution: Blood (120 min post-injection): 0.26 ± 0.01 ID %/g | Biodistribution: Bone (120 min post-injection): 0.15 ± 0.05 ID %/g | Biodistribution: Brain (120 min post-injection): 0.03 ± 0.02 ID %/g | Biodistribution: Heart (120 min post-injection): 0.52 ± 0.01 ID %/g | Biodistribution: Kidney (120 min post-injection): 0.80 ± 0.07 ID %/g | Biodistribution: Liver (120 min post-injection): 13.81 ± 0.59 ID %/g | Biodistribution: Lungs (120 min post-injection): 0.32 ± 0.06 ID %/g | Biodistribution: Muscle (120 min post-injection): 0.21 ± 0.03 ID %/g | Biodistribution: Spleen (120 min post-injection): 0.15 ± 0.07 ID %/g | Heart-to-Blood ratio (120 min post-injection): 2.00 | Heart-to-Liver ratio (120 min post-injection): 0.04 | Heart-to-Lungs ratio (120 min post-injection): 1.63 | Biodistribution: Large Intestine (120 min post-injection): 1.02 ± 0.22 % ID | Biodistribution: Small Intestine (120 min post-injection): 19.83 ± 1.14 % ID | Biodistribution: Stomach (120 min post-injection): 0.47 ± 0.10 % ID | absolute myocardial uptake (assessment): low
